From patent US7998989B2, “2-Imino-1,3-thiazoline-based compounds and T-type calcium channel inhibitors containing the same” (Korea Institute of Science and Technology, priority 2007, dated 2011)

Tests used:
[1] = molecular target: T1, α1G T-type calcium channel (Homo sapiens, UniProt O43497); assay: Assay for % inhibiting activity against T-type calcium channel using FDSS6000 (fluo-3 calcium imaging, KCl activation); type: cell-based; settings: HEK293, 10 μM; HEK293 cells stably expressing α1G T-type calcium channel and Kir2.1; compounds of the examples; read-out: FDSS (% inhibition)/10uM
T1 construct: host or cells: HEK293
Method in brief: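 HEK293 cells stably expressing α1G and Kir2.1 loaded with 5 μM fluo-3/AM, then in HEPES buffer (pH 7.4) with 10 mM CaCl2. Compound applied 75 s before 75 mM KCl; intracellular Ca2+ read as […] area, % inhibition relative to untreated control.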

T1 sequence (O43497 whole entry): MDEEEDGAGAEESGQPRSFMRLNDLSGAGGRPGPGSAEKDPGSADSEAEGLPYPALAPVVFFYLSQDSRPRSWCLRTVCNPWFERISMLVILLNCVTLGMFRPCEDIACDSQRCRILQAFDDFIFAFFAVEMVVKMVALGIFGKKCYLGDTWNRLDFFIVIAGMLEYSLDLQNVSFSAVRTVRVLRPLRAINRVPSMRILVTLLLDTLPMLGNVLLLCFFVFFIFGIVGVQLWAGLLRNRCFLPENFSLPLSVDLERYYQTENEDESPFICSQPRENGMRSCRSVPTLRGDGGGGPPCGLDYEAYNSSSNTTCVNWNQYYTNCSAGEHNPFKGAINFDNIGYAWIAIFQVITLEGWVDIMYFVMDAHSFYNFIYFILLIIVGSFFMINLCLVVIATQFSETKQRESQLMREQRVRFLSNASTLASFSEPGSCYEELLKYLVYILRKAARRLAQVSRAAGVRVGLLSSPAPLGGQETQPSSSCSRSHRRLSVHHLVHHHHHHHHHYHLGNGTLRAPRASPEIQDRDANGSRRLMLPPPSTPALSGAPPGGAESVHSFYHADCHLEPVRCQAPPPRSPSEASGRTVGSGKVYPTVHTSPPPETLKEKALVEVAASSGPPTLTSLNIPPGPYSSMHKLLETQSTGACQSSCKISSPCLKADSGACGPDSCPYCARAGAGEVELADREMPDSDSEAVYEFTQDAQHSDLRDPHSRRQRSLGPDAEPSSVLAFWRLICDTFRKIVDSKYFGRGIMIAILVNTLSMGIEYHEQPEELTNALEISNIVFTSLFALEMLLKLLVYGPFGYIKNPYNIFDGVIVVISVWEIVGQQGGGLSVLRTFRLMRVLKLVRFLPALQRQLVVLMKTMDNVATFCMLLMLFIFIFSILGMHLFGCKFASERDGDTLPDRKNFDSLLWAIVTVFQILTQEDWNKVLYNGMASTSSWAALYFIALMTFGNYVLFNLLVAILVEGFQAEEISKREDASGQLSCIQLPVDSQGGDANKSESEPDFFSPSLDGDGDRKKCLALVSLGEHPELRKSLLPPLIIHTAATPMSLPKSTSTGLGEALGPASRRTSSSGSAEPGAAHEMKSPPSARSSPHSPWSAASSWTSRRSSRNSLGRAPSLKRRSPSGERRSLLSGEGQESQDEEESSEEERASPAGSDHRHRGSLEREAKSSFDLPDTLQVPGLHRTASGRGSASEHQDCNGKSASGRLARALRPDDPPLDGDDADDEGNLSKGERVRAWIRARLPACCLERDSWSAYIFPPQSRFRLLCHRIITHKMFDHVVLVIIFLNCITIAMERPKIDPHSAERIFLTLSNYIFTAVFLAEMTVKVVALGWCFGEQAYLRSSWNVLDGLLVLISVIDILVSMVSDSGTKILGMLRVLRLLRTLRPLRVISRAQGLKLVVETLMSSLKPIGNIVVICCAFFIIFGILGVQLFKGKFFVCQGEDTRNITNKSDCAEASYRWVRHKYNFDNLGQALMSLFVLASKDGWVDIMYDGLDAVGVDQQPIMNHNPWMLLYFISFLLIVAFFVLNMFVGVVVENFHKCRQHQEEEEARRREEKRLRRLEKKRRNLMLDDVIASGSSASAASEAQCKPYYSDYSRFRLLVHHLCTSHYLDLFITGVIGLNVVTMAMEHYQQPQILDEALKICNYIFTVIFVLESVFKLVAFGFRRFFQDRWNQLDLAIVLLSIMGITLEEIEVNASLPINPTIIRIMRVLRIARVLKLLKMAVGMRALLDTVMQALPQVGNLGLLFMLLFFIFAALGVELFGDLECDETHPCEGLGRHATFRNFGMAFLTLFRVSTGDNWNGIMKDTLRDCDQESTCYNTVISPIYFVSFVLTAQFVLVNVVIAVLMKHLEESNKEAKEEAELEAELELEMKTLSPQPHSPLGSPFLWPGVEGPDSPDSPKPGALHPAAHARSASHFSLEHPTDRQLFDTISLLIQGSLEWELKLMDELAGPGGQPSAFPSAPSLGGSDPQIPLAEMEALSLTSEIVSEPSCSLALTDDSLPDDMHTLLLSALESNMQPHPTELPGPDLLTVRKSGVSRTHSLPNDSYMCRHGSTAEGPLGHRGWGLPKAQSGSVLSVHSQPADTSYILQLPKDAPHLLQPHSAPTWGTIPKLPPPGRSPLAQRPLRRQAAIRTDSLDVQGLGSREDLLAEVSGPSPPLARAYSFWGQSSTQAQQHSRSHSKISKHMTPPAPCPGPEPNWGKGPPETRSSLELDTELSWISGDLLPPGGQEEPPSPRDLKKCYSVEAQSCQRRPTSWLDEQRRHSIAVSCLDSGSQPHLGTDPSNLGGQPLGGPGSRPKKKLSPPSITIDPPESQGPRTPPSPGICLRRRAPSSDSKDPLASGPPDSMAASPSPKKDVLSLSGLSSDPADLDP

SMILES	inhibition at 10 µM [1] [%]	melting point [°C]
CCCCc1ccc(NC(=O)CC2CSC(=NC3CCCCC3)N2CCC)cc1.Cl (stereo not shown) [KHG24291, [2-cyclohexylimino-3-(n-propyl)-1,3-thiazolidine-4-yl]-N-(4-n-butylphenyl)-acetamide hydrochloride]	63.2	201.4
CCN1C(=NC2CCCCC2)SCC1CC(=O)NCc1ccc(C)cc1.Cl (stereo not shown) [KHG24292, (2-cyclohexylimino-3-ethyl-1,3-thiazolidine-4-yl)-N-(4-methylbenzyl)-acetamide hydrochloride]	43.9	172.6
CCCN1C(=NC2CCCCC2)SCC1CC(=O)NCc1ccc(C)cc1.Cl (stereo not shown) [KHG24293, [2-cyclohexylimino-3-(n-propyl)-1,3-thiazolidine-4-yl]-N-(4-methylbenzyl)-acetamide hydrochloride]	55.8	189.5 to 191.2
CCCN1C(=NC2CCCCC2)SCC1CC(=O)Nc1ccc(C(C)C)cc1.Cl (stereo not shown) [KHG24294, [2-cyclohexylimino-3-(n-propyl)-1,3-thiazolidine-4-yl]-N-(4-isopropylphenyl)-acetamide hydrochloride]	65.7	207
CCCN1C(=NC2CCCCC2)SCC1CC(=O)Nc1ccc(C)cc1.Cl (stereo not shown) [KHG24297, [2-cyclohexylimino-3-(n-propyl)-1,3-thiazolidine-4-yl]-N-(4-methylphenyl)-acetamide hydrochloride]	51	188.9
CCCN1C(=NC2CCCCC2)SCC1CC(=O)Nc1ccc(CC)cc1.Cl (stereo not shown) [KHG24298, [2-cyclohexylimino-3-(n-propyl)-1,3-thiazolidine-4-yl]-N-(4-ethylphenyl)-acetamide hydrochloride]	60.4	221.4
CN1C(=NC2CCCCCC2)SCC1C(=O)NCc1cccc(Cl)c1.Cl (stereo not shown) [KHG24336, (2-cycloheptylimino-3-methyl-1,3-thiazolidine-4-yl)-N-(3-chlorobenzyl)-carboxamide hydrochloride]	60.1	230 to 231
CN1C(=NC2CCCCCC2)SCC1C(=O)NCc1ccc(Cl)cc1.Cl (stereo not shown) [KHG24337, (2-cycloheptylimino-3-methyl-1,3-thiazolidine-4-yl)-N-(4-chlorobenzyl)-carboxamide hydrochloride]	56.6	220 to 222
CN1C(=NC2CCCCCC2)SCC1C(=O)NCc1ccc(Cl)c(Cl)c1.Cl (stereo not shown) [KHG24338, (2-cycloheptylimino-3-methyl-1,3-thiazolidine-4-yl)-N-(3,4-dichlorobenzyl)-carboxamide hydrochloride]	70.8	218 to 219
COc1ccc(CNC(=O)C2CSC(=NC3CCCCCC3)N2C)cc1.Cl (stereo not shown) [KHG24339, (2-cycloheptylimino-3-methyl-1,3-thiazolidine-4-yl)-N-(4-methoxybenzyl)-carboxamide hydrochloride]	44.2	156 to 159
CCCN1C(=NC2CCCCC2)SCC1CC(=O)Nc1ccc(C(F)(F)F)cc1.Cl (stereo not shown) [KHG24404, [2-cyclohexylimino-3-(n-propyl)-1,3-thiazolidine-4-yl]-N-(4-trifluoromethylphenyl)-acetamide hydrochloride]	64.7	173.6 to 174.8
CCCN1C(=NC2CCCCC2)SCC1CC(=O)Nc1ccc(C)c(Cl)c1.Cl (stereo not shown) [KHG24405, (2-cyclohexylimino-3-(n-propyl)-1,3-thiazolidine-4-yl)-N-(3-chloro-4-methylphenyl)-acetamide hydrochloride]	68.4	204.9
CCCN1C(=NC2CCCCC2)SCC1CC(=O)Nc1cc(Cl)cc(Cl)c1.Cl (stereo not shown) [KHG24415, [2-cyclohexylimino-3-(n-propyl)-1,3-thiazolidine-4-yl]-N-(3,5-dichlorophenyl)-acetamide hydrochloride]	64.2	109.2
CCCCN1C(=NC2CCCCC2)SCC1CC(=O)Nc1cc(Cl)cc(Cl)c1.Cl (stereo not shown) [KHG24416, [2-cyclohexylimino-3-(n-butyl)-1,3-thiazolidine-4-yl]-N-(3,5-dichlorophenyl)-acetamide hydrochloride]	59.8	153 to 154
CN1C(=NC23CC4CC(CC(C4)C2)C3)SCC1CC(=O)Nc1cc(Cl)cc(Cl)c1.Cl (stereo not shown) [KHG24417, [2-(1-adamantyl)imino-3-methyl-1,3-thiazolidine-4-yl]-N-(3,5-dichlorophenyl)-acetamide hydrochloride]	59.1	238 to 240
Cc1ccc(NC(=O)CC2CSC(=NC34CC5CC(CC(C5)C3)C4)N2C)c(Cl)c1.Cl (stereo not shown) [KHG24418, [2-(1-adamantyl)imino-3-methyl-1,3-thiazolidine-4-yl]-N-(2-chloro-4-methylphenyl)-acetamide hydrochloride]	56.9	234 to 236
COc1ccc(NC(=O)CC2CSC(=NC34CC5CC(CC(C5)C3)C4)N2C)cc1.Cl (stereo not shown) [KHG24419, [2-(1-adamantyl)imino-3-methyl-1,3-thiazolidine-4-yl]-N-(4-methoxyphenyl)-acetamide hydrochloride]	46.7	227 to 229
CCCCN1C(=NC2CCCCC2)SCC1CC(=O)Nc1ccc(C)cc1Cl.Cl (stereo not shown) [KHG24421, (2-cyclohexylimino-3-(n-butyl)-1,3-thiazolidine-4-yl)-N-(2-chloro-4-methylphenyl)-acetamide hydrochloride]	65.8	143 to 144

Other lines, results leading:

inhibition at 10 µM [1] [%]	melting point [°C]	SMILES
36.2	139.2	CCCN1C(=NC2CCCCC2)SCC1CC(=O)Nc1cc([N+](=O)[O-])ccc1F.Cl (stereo not shown) [KHG24295, [2-cyclohexylimino-3-(n-propyl)-1,3-thiazolidine-4-yl]-N-(2-fluoro-5-nitrophenyl)-acetamide hydrochloride]
53.1	169.7	CCCN1C(=NC2CCCCC2)SCC1CC(=O)Nc1ccc(F)cc1.Cl (stereo not shown) [KHG24296, [2-cyclohexylimino-3-(n-propyl)-1,3-thiazolidine-4-yl]-N-(4-fluorophenyl)-acetamide hydrochloride]
45.6	199	Cl.O=C(CC1CSC(=NC2CCCCC2)N1Cc1ccccc1)Nc1ccc(Cl)cc1 (stereo not shown) [KHG24299, (2-cyclohexylimino-3-benzyl-1,3-thiazolidine-4-yl)-N-(4-chlorophenyl)-acetamide hydrochloride]
36.7	181.4	Cl.O=C(CC1CSC(=NC2CCCCC2)N1Cc1ccccc1)Nc1ccc(Br)cc1 (stereo not shown) [KHG24300, (2-cyclohexylimino-3-benzyl-1,3-thiazolidine-4-yl)-N-(4-bromophenyl)-acetamide hydrochloride]
31.1	202.9	CC(C)c1ccc(NC(=O)CC2CSC(=NC3CCCCC3)N2Cc2ccccc2)cc1.Cl (stereo not shown) [KHG24303, (2-cyclohexylimino-3-benzyl-1,3-thiazolidine-4-yl)-N-(4-isopropylphenyl)-acetamide hydrochloride]
58.9	214.1	Cl.O=C(CC1CSC(=NC2CCCCC2)N1Cc1ccccc1)Nc1ccc(F)cc1 (stereo not shown) [KHG24305, (2-cyclohexylimino-3-benzyl-1,3-thiazolidine-4-yl)-N-(4-fluorophenyl)-acetamide hydrochloride]
53.2	146.4	CCc1ccc(NC(=O)CC2CSC(=NC3CCCCC3)N2Cc2ccccc2)cc1.Cl (stereo not shown) [KHG24306, (2-cyclohexylimino-3-benzyl-1,3-thiazolidine-4-yl)-N-(4-ethylphenyl)-acetamide hydrochloride]
60.8	195	Cl.O=C(CC1CSC(=NC2CCCCC2)N1C1CC1)Nc1ccc(Oc2ccccc2)cc1 (stereo not shown) [KHG24315, (2-cyclohexylimino-3-cyclopropyl-1,3-thiazolidine-4-yl)-N-(4-phenoxyphenyl)-acetamide hydrochloride]
49.1	196.5	CCN1C(=NC2CCCCC2)SCC1CC(=O)Nc1ccc(F)cc1.Cl (stereo not shown) [KHG24403, (2-cyclohexylimino-3-ethyl-1,3-thiazolidine-4-yl)-N-(4-fluorophenyl)-acetamide hydrochloride]
34.4	156.2	CCCCc1ccc(NC(=O)CC2CSC(=NC3CCCCC3)N2Cc2ccccc2)cc1.Cl (stereo not shown) [KHG24406, (2-cyclohexylimino-3-benzyl-1,3-thiazolidine-4-yl)-N-(4-n-butylphenyl)-acetamide hydrochloride]
48.7	238.5	Cl.O=C(CC1CSC(=NC2CCCCC2)N1Cc1ccccc1)Nc1ccc(C(F)(F)F)cc1 (stereo not shown) [KHG24407, (2-cyclohexylimino-3-benzyl-1,3-thiazolidine-4-yl)-N-(4-trifluoromethylphenyl)-acetamide hydrochloride]
32.6	194.8	Cl.O=C(CC1CSC(=NC2CCCCC2)N1Cc1ccccc1)Nc1cc(Cl)ccc1F (stereo not shown) [KHG24408, (2-cyclohexylimino-3-benzyl-1,3-thiazolidine-4-yl)-N-(5-chloro-2-fluorophenyl)-acetamide hydrochloride]
61	100.5	CCN1C(=NC2CCCCC2)SCC1CC(=O)Nc1cc(Cl)cc(Cl)c1.Cl (stereo not shown) [KHG24414, (2-cyclohexylimino-3-ethyl-1,3-thiazolidine-4-yl)-N-(3,5-dichlorophenyl)-acetamide hydrochloride]
58.5	115	CCN1C(=NC2CCCCC2)SCC1CC(=O)Nc1ccc(C)cc1Cl.Cl (stereo not shown) [KHG24420, (2-cyclohexylimino-3-ethyl-1,3-thiazolidine-4-yl)-N-(2-chloro-4-methylphenyl)-acetamide hydrochloride]
